From patent US20060089378A1 (priority 2004, published 2006)

Columns and labels:
Cannabinoid CB2 Receptor = molecular target: T1, Cannabinoid CB2 Receptor (Homo sapiens, UniProt P34972); assay: Binding assay for CB2 agonists or inverse agonists (radioligand competition, membranes of transfected SK-N-MC cells); conditions: for inhibition at 0.2 µM: read-out: Cannabinoid CB2 Receptor Binding percent inhibition
T1 construct: expressed in transfected cells

Cannabinoid CB1 Receptor = molecular target: T2, Cannabinoid CB1 Receptor (Homo sapiens, UniProt P21554); assay: Binding assay for CB1 agonists or inverse agonists (radioligand competition, membranes of transfected SK-N-MC cells)
T2 construct: expressed in transfected cells
T2 sequence (P21554 whole entry): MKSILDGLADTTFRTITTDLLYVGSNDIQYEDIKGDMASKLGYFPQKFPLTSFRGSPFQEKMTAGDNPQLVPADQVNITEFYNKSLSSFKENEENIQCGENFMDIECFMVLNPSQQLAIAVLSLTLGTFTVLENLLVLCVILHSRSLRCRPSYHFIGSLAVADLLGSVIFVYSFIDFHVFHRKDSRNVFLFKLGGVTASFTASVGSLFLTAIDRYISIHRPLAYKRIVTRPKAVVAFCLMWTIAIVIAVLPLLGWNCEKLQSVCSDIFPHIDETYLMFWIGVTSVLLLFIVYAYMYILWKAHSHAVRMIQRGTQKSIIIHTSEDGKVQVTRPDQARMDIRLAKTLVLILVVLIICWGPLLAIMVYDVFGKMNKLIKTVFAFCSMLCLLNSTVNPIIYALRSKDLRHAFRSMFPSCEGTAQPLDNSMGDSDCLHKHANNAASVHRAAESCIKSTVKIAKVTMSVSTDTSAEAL

CB1 receptor (human) = CB1 receptor (human) (Homo sapiens, UniProt P21554); assay: cell-based
Sequence of CB1 receptor (human) (P21554 whole entry): as above

T1 sequence (P34972 whole entry): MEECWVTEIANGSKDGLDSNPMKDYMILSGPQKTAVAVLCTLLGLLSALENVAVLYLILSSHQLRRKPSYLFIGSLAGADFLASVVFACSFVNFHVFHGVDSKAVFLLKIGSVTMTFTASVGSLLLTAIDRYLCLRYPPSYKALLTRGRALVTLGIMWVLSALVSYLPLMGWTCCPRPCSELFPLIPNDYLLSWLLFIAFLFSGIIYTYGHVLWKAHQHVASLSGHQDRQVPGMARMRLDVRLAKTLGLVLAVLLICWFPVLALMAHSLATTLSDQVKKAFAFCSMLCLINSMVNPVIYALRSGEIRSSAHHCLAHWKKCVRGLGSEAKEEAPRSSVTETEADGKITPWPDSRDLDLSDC

SMILES	inhibition at 0.2 µM (Cannabinoid CB2 Receptor) [%]	IC50 (Cannabinoid CB1 Receptor) [µM]	EC50 (CB1 receptor (human)) [µM]	Cannabinoid CB2 Receptor Binding percent inhibition (Cannabinoid CB2 Receptor; test concentration of 0.2 μM, compounds without an IC50 binding value) [%]
C[C@@H](NC(=O)c1nn(-c2ccc(Cl)cc2Cl)c2c1CN(S(C)(=O)=O)C/C2=C\c1ccc(F)cc1)c1ccccc1 [Cpd 17]	36	0.002	0.006	–
Cc1ccc(S(=O)(=O)N2C/C(=C\c3ccc(F)cc3)c3c(c(C(=O)N[C@H](C)c4ccccc4)nn3-c3ccc(Cl)cc3Cl)C2)cc1 [Cpd 18]	48	0.01	0.08	–
CCNC(=O)N1C/C(=C\c2ccc(F)cc2)c2c(c(C(=O)N[C@H](C)c3ccccc3)nn2-c2ccc(Cl)cc2Cl)C1 [Cpd 19, (7E)-1-(2,4-dichloro-phenyl)-7-(4-fluoro-benzylidene)-1,4,6,7-tetrahydro-pyrazolo[4,3-c]pyridine-3,5-dicarboxylic acid 5-ethylamide 3-[(1R)-(1-phenyl-ethyl)-amide]]	10	0.007	0.005	–
CC(NC(=O)c1nn(-c2ccc(Cl)cc2Cl)c2c1CN(C(=O)OC(C)(C)C)C/C2=C\c1ccc(F)cc1)c1ccccn1 (stereo not drawn) [Cpd 20, (7E)-1-(2,4-dichloro-phenyl)-7-(4-fluoro-benzylidene)-3-(1-pyridin-2-yl-ethylcarbamoyl)-1,4,6,7-tetrahydro-pyrazolo[4,3-c]pyridine-5-carboxylic acid tert-butyl ester]	14	0.04	0.02	–
CC(NC(=O)c1nn(-c2ccc(Cl)cc2Cl)c2c1CNC/C2=C\c1ccc(F)cc1)c1ccccn1 (stereo not drawn) [Cpd 21, (7E)-1-(2,4-dichloro-phenyl)-7-(4-fluoro-benzylidene)-4,5,6,7-tetrahydro-1H-pyrazolo[4,3-c]pyridine-3-carboxylic acid (1-pyridin-2-yl-ethyl)-amide]	5	0.05	0.07	–
CC(=O)N1C/C(=C\c2ccc(F)cc2)c2c(c(C(=O)NC(C)c3ccccn3)nn2-c2ccc(Cl)cc2Cl)C1 (stereo not drawn) [Cpd 22, (7E)-5-acetyl-1-(2,4-dichloro-phenyl)-7-(4-fluoro-benzylidene)-4,5,6,7-tetrahydro-1H-pyrazolo[4,3-c]pyridine-3-carboxylic acid (1-pyridin-2-yl-ethyl)-amide]	2	0.03	0.004	–
COC(=O)N1C/C(=C\c2ccc(F)cc2)c2c(c(C(=O)NC(C)c3ccccn3)nn2-c2ccc(Cl)cc2Cl)C1 (stereo not drawn) [Cpd 23, (7E)-1-(2,4-dichloro-phenyl)-7-(4-fluoro-benzylidene)-3-(1-pyridin-2-yl-ethylcarbamoyl)-1,4,6,7-tetrahydro-pyrazolo[4,3-c]pyridine-5-carboxylic acid methyl ester]	18	0.01	0.004	–
CCNC(=O)N1C/C(=C\c2ccc(F)cc2)c2c(c(C(=O)NC(C)c3ccccn3)nn2-c2ccc(Cl)cc2Cl)C1 (stereo not drawn) [Cpd 24, (7E)-1-(2,4-dichloro-phenyl)-7-(4-fluoro-benzylidene)-1,4,6,7-tetrahydro-pyrazolo[4,3-c]pyridine-3,5-dicarboxylic acid 5-ethylamide 3-[(1-pyridin-2-yl-ethyl)-amide]]	6	0.02	0.02	–
CC(NC(=O)c1nn(-c2ccc(Cl)cc2Cl)c2c1CN(C(=O)OCc1ccccc1)C/C2=C\c1ccc(F)cc1)c1ccccn1 (stereo not drawn) [Cpd 25, (7E)-1-(2,4-dichloro-phenyl)-7-(4-fluoro-benzylidene)-3-(1-pyridin-2-yl-ethylcarbamoyl)-1,4,6,7-tetrahydro-pyrazolo[4,3-c]pyridine-5-carboxylic acid benzyl ester]	17	0.05	0.09	–
Cc1ccc(S(=O)(=O)N2C/C(=C\c3ccc(F)cc3)c3c(c(C(=O)NC(C)c4ccccn4)nn3-c3ccc(Cl)cc3Cl)C2)cc1 (stereo not drawn) [Cpd 26, (7E)-1-(2,4-dichloro-phenyl)-7-(4-fluoro-benzylidene)-5-(toluene-4-sulfonyl)-4,5,6,7-tetrahydro-1H-pyrazolo[4,3-c]pyridine-3-carboxylic acid (1-pyridin-2-yl-ethyl)-amide]	24	0.03	0.02	–
CC(NC(=O)c1nn(-c2ccc(Cl)cc2Cl)c2c1CN(S(C)(=O)=O)C/C2=C\c1ccc(F)cc1)c1ccccn1 (stereo not drawn) [Cpd 27, (7E)-1-(2,4-dichloro-phenyl)-7-(4-fluoro-benzylidene)-5-methanesulfonyl-4,5,6,7-tetrahydro-1H-pyrazolo[4,3-c]pyridine-3-carboxylic acid (1-pyridin-2-yl-ethyl)-amide]	16	0.005	0.006	–
C[C@@H](NC(=O)c1nn(-c2ccc(Cl)cc2Cl)c2c1CNC/C2=C\c1ccc(F)cc1)C1CCCCC1 [Cpd 28, (7E)-1-(2,4-dichloro-phenyl)-7-(4-fluoro-benzylidene)-4,5,6,7-tetrahydro-1H-pyrazolo[4,3-c]pyridine-3-carboxylic acid [(1R)-1-cyclohexyl-ethyl]-amide]	31	0.02	0.008	–
CC(NC(=O)c1nn(-c2ccc(Cl)cc2Cl)c2c1CN(C)C/C2=C\c1ccc(F)cc1)c1ccccn1 (stereo not drawn) [Cpd 29, (7E)-1-(2,4-dichloro-phenyl)-7-(4-fluoro-benzylidene)-5-methyl-4,5,6,7-tetrahydro-1H-pyrazolo[4,3-c]pyridine-3-carboxylic acid (1-pyridin-2-yl-ethyl)-amide]	6	0.06	0.006	–
C[C@@H](NC(=O)c1nn(-c2ccc(Cl)cc2Cl)c2c1CN(S(C)(=O)=O)C/C2=C\c1ccc(F)cc1)C1CCCCC1 [Cpd 30, (7E)-1-(2,4-dichloro-phenyl)-7-(4-fluoro-benzylidene)-5-methanesulfonyl-4,5,6,7-tetrahydro-1H-pyrazolo[4,3-c]pyridine-3-carboxylic acid [(1R)-1-cyclohexyl-ethyl]-amide]	1	0.007	0.001	–
Cc1ccc(S(=O)(=O)N2C/C(=C\c3ccc(F)cc3)c3c(c(C(=O)N[C@H](C)C4CCCCC4)nn3-c3ccc(Cl)cc3Cl)C2)cc1 [Cpd 31, (7E)-1-(2,4-dichloro-phenyl)-7-(4-fluoro-benzylidene)-5-(toluene-4-sulfonyl)-4,5,6,7-tetrahydro-1H-pyrazolo[4,3-c]pyridine-3-carboxylic acid [(1R)-1-cyclohexyl-ethyl]-amide]	–	0.03	1.1	29
CCNC(=O)N1C/C(=C\c2ccc(F)cc2)c2c(c(C(=O)N[C@H](C)C3CCCCC3)nn2-c2ccc(Cl)cc2Cl)C1 [Cpd 32, (7E)-1-(2,4-dichloro-phenyl)-7-(4-fluoro-benzylidene)-1,4,6,7-tetrahydro-pyrazolo[4,3-c]pyridine-3,5-dicarboxylic acid 3-{[(1R)-1-cyclohexyl-ethyl]-amide} 5-ethylamide]	6	0.02	0.003	–
CS(=O)(=O)N1C/C(=C\c2ccc(F)cc2)c2c(c(C(=O)NN3CCCCC3)nn2-c2ccc(Cl)cc2Cl)C1 [Cpd 33, (7E)-1-(2,4-dichloro-phenyl)-7-(4-fluoro-benzylidene)-5-methanesulfonyl-4,5,6,7-tetrahydro-1H-pyrazolo[4,3-c]pyridine-3-carboxylic acid piperidin-1-ylamide]	15	0.03	0.009	–
CCNC(=O)N1C/C(=C\c2ccc(F)cc2)c2c(c(C(=O)NN3CCCCC3)nn2-c2ccc(Cl)cc2Cl)C1 [Cpd 34, (7E)-1-(2,4-dichloro-phenyl)-7-(4-fluoro-benzylidene)-1,4,6,7-tetrahydro-pyrazolo[4,3-c]pyridine-3,5-dicarboxylic acid 5-ethylamide 3-piperidin-1-ylamide]	12	0.05	0.009	–
COc1ccc(/C=C2\CN(C(=O)OC(C)(C)C)Cc3c(C(=O)N[C@H](C)c4ccccc4)nn(-c4ccc(Cl)cc4Cl)c32)cc1 [Cpd 35, (7E)-1-(2,4-dichloro-phenyl)-7-(4-methoxy-benzylidene)-3-[(1R)-1-phenyl-ethylcarbamoyl]-1,4,6,7-tetrahydro-pyrazolo[4,3-c]pyridine-5-carboxylic acid tert-butyl ester]	27	0.02	0.004	–
COc1ccc(/C=C2\CN(C(=O)OC(C)(C)C)Cc3c(C(=O)NC(C)c4ccccn4)nn(-c4ccc(Cl)cc4Cl)c32)cc1 (stereo not drawn) [Cpd 36, (7E)-1-(2,4-dichloro-phenyl)-7-(4-methoxy-benzylidene)-3-(1-pyridin-2-yl-ethylcarbamoyl)-1,4,6,7-tetrahydro-pyrazolo[4,3-c]pyridine-5-carboxylic acid tert-butyl ester]	27	0.04	0.006	–
COc1ccc(/C=C2\CN(C(=O)OC(C)(C)C)Cc3c(C(=O)NN4CCCCC4)nn(-c4ccc(Cl)cc4Cl)c32)cc1 [Cpd 37, (7E)-1-(2,4-dichloro-phenyl)-7-(4-methoxy-benzylidene)-3-(piperidin-1-ylcarbamoyl)-1,4,6,7-tetrahydro-pyrazolo[4,3-c]pyridine-5-carboxylic acid tert-butyl ester]	27	0.09	0.005	–
COc1ccc(/C=C2\CNCc3c(C(=O)N[C@H](C)c4ccccc4)nn(-c4ccc(Cl)cc4Cl)c32)cc1 [Cpd 38, (7E)-1-(2,4-dichloro-phenyl)-7-(4-methoxy-benzylidene)-4,5,6,7-tetrahydro-1H-pyrazolo[4,3-c]pyridine-3-carboxylic acid [(1R)-1-phenyl-ethyl]-amide]	25	0.01	0.005	–
